These results are taken from patent US20220194936A1, “CRYSTALLINE FORMS OF N-(5-(5-((1R,2S)-2-FLUOROCYCLOPROPYL)-1,2,4-OXADIAZOL-3-YL)-2-METHYLPHENYL)IMIDAZO[1,2-A]PYRIDINE-3-CARBOXAMIDE” (Novartis AG, priority 2019, published 2022).

Series [1] is described as follows: Solubility in various media at 25° C. after 24 hours equilibration (HPLC). The format is physicochemical. Conditions: for solubility at 24 h: thermodynamic from solid, read-out: Conc. (solubility). As to the method: (§1) 5-(5-((I R,2S)-2-fluorocyclopropyl)-1,2,4-oxadiazol-3-yl)-2-methylphenyl)imidazo[1,2-a]pyridine-3-carboxamide Form A (10 mg) in various media (1 mL) were mixed in a glass vial to make a slurry. Each sample was equilibrated at 25° C. for 24 hrs, and centrifuged at 13400 r.p.m. for 3 mins with 0.2 μm membrane to separate solids from liquids. The liquid was used to measure solubility by HPLC. Table 6 provides solubility data of 5-(5-((1R,2S)-2-fluorocyclopropyl)-1,2,4-oxadiazol-3-yl)-2-methylphenyl)imidazo[1,2-a]pyridine-3-carboxamide Form A at 25° C. after 24 hours equilibration and the final pH of the sample.
as §1, with “5-(5-((1R,2S)-2-fluorocyclopropyl)-1,2,4-oxadiazol-3-yl)-2-methylphenyl)imidazo[1,2-a]pyridine-3-carboxamide fumaric acid co-crystal” for “5-(5-((I R,2S)-2-fluorocyclopropyl)-1,2,4-oxadiazol-3-yl)-2-methylphenyl)imidazo[1,2-a]pyridine-3-carboxamide Form A”, “10” for “6”, “fumaric acid co-crystal” for “Form A”

A short description of series [2]: Evaluation of humidity at elevated temperature (solid state, open vial, 75% RH, 1 week; HPLC, XRPD, color). Format: physicochemical. Particulars: for Bulk (XRPD): 50° C. and 80° C. As to the method:
(5-(5-((1R,2S)-2-fluorocyclopropyl)-1,2,4-oxadiazol-3-yl)-2-methylphenyl)imidazo[1,2-a]pyridine-3-carboxamide Form A (10 mg) was placed in an open vial in a 75% relative humidity (RH) chamber at 50° C. for one week and also in an open vial in a 75% relative humidity (RH) chamber at 80° C. for one week. The initial purity of (5-(5-((1R,2S)-2-fluorocyclopropyl)-1,2,4-oxadiazol-3-yl)-2-methylphenyl)imidazo[1,2-a]pyridine-3-carboxamide Form A was 99.7%.
The samples were examined by XRPD for physical stability determination and by HPLC for chemical stability determination indicated by the presence of degradation products (DP).
The HPLC method used is […]
The color (CL) of the samples was evaluated by visual observation.
(5-(5-((1R,2S)-2-fluorocyclopropyl)-1,2,4-oxadiazol-3-yl)-2-methylphenyl)imidazo[1,2-a]pyridine-3-carboxamide fumaric acid co-crystal (10 mg) was placed in an open vial in a 75% relative humidity (RH) chamber at 50° C. for one week and also in an open vial in a 75% relative humidity (RH) chamber at 80° C. for one week. The initial purity of (5-(5-((1R,2S)-2-fluorocyclopropyl)-1,2,4-oxadiazol-3-yl)-2-methylphenyl)imidazo[1,2-a]pyridine-3-carboxamide fumaric acid co-crystal was 99.7%.
The samples were examined by XRPD for physical stability determination and by HPLC for chemical stability determination indicated by the presence of degradation products (DP). The HPLC method used is […]

[3] abbreviates: FaSSIF-V2, pH 6.5, 25° C., LOQ = Limit of Quantitation +/− 0.5 μg/ml.
The mark [4] stands for this setting: Water, 25° C., LOQ = Limit of Quantitation +/− 0.5 μg/ml.
The mark [5] stands for this setting: pH 4.7, acetate buffer, 25° C., LOQ = Limit of Quantitation +/− 0.5 μg/ml.
Where [6] appears, read: pH 6.8, phosphate buffer, 25° C.
Setting [7] is: pH 6.8, phosphate buffer, 25° C., LOQ = Limit of Quantitation +/− 0.5 μg/ml.
[8] abbreviates: pH 10.0, borate buffer, 25° C., LOQ = Limit of Quantitation +/− 0.5 μg/ml.

≈ marks a conversion by molar mass, not a printed value. Like-named read-outs stand apart in the source and are kept apart here.

For the molecule `Cc1ccc(-c2noc([C@H]3C[C@@H]3F)n2)cc1NC(=O)c1cnc2ccccn12` [Form A, N-(5-(5-((1R,2S)-2-fluorocyclopropyl)-1,2,4-oxadiazol-3-yl)-2-methylphenyl)imidazo[1,2-a]pyridine-3-carboxamide], the solubility at 24 h in series [1] (0.01N HCl, 25 °C, pH 2, simulated gastric fluid, pH 2.0 (0.01N HCl), 25° C.) was 210 µg/mL (≈ 556 µM); in series [1] (0.1N HCl, 25 °C, pH 1, simulated gastric fluid, pH 1.0 (0.1N HCl), 25° C.), 440 µg/mL (≈ 1170 µM); in series [1] (FeSSIF-V2, 25 °C, pH 5.8, fessif, FeSSIF-V2, pH 5.8, 25° C.), 15 µg/mL (≈ 39.7 µM). Also, the “Final pH” value in series [1] (FaSSIF-V2, pH 6.5, 25° C.) is listed as 6.40; in series [1] (FeSSIF-V2, pH 5.8, 25° C.), 5.63; in series [1] (SGF pH 2.0, 25° C.), 2.10; in series [1] (Water, 25° C.), 7.91; in series [1] (pH 1.0 (0.1N HCl), 25° C.) it was 1.20; in series [1] (pH 2.0 (0.01N HCl), 25° C.), 2.06. Moreover, the “Final pH” value came out at 4.78 in series [1] (pH 4.7, acetate buffer, 25° C.); 6.77 in series [1] (setting [6]); 10.02 in series [1] (pH 10.0, borate buffer, 25° C.). The “Conc. (solubility)” value is “LOQ” in series [1] (setting [3]); 640 µg/mL in series [1] (SGF pH 2.0, 25° C.); “LOQ” in series [1] (setting [4]); “LOQ” in series [1] (setting [5]); “LOQ” in series [1] (setting [7]); “LOQ” in series [1] (setting [8]). Besides, the “CL (color)” value in series [2] (50° C.) and in series [2] (80° C.) was “No change” throughout. Also, the “DP (%) degradation products, Bulk (HPLC)” value in series [2] (50° C.) and in series [2] (80° C.) was 0.06% each time. Further, the “Bulk (XRPD)” value in series [2] was “Bulk (XRPD): No change”.

With `Cc1ccc(-c2noc([C@H]3C[C@@H]3F)n2)cc1NC(=O)c1cnc2ccccn12` [fumaric acid co-crystal, N-(5-(5-((1R,2S)-2-fluorocyclopropyl)-1,2,4-oxadiazol-3-yl)-2-methylphenyl)imidazo[1,2-a]pyridine-3-carboxamide fumaric acid co-crystal], the “Final pH” value in series [1] (FaSSIF-V2, pH 6.5, 25° C.) came to 4.66; in series [1] (FeSSIF-V2, pH 5.8, 25° C.) it was 4.75; in series [1] (SGF pH 2.0, 25° C.), 1.94; in series [1] (Water, 25° C.), 4.26; in series [1] (pH 1.0 (0.1N HCl), 25° C.) it was 0.95; in series [1] (pH 2.0 (0.01N HCl), 25° C.) it was 1.98. The “Final pH” value in series [1] (pH 4.7, acetate buffer, 25° C.) was 4.51; in series [1] (setting [6]), 5.79; in series [1] (pH 10.0, borate buffer, 25° C.), 8.76. The “Conc. (solubility)” value in series [1] (setting [3]) was “LOQ”; in series [1] (FeSSIF-V2, pH 5.8, 25° C.), 8 µg/mL; in series [1] (SGF pH 2.0, 25° C.), 180 µg/mL; in series [1] (setting [4]), “LOQ”; in series [1] (pH 1.0 (0.1N HCl), 25° C.), 410 µg/mL; in series [1] (pH 2.0 (0.01N HCl), 25° C.) it was 190 µg/mL. In addition, the “Conc. (solubility)” value in series [1] (setting [5]), in series [1] (setting [7]) and in series [1] (setting [8]) was “LOQ” throughout. In addition, the “CL (color)” value in series [2] (50° C.) and in series [2] (80° C.) was “No change” throughout. The “DP (%) degradation products, Bulk (HPLC)” value in series [2] (50° C.) is listed as 0.11%; in series [2] (80° C.), 0.09%. Also, the “Bulk (XRPD)” value in series [2] was “Bulk (XRPD): No change”.
